Laboratory results taken from patent publication US9725416B2, “Ethynyl derivatives” (Hoffmann-La Roche Inc., priority 2014, dated 2017).

Target: T1, human mGlu4 receptor (Homo sapiens, UniProt Q14833)
T1 construct: expressed in transfected cells; host or cells: HEK-293 (monoclonal, stably transfected)
Assay: Ca2+ mobilization in vitro assay on recombinant human mGlu4 expressed in HEK293 cells (mGlu4 PAM)
Type: cell-based
Settings: for Emax: HEK293, maximal response in % of the maximal stimulatory effect obtained with saturating concentrations of L-AP4, read-out: Eff. (%); for EC50: HEK-293 cells, Ca2+ mobilization, L-AP4 added at EC20
Procedure: Determination of EC50 Values Using a Ca2+ mobilization in vitro Assay on Recombinant Human mGlu4 Expressed in HEK293 cells:
A monoclonal HEK-293 cell line stably transfected with a cDNA encoding for the human mGlu4 receptor was generated; for the work with mGlu4 Positive Allosteric Modulators (PAMs), a cell line with low receptor expression levels and low constitutive receptor activity was selected to allow the differentiation of agonistic versus PAM activity. Cells were cultured according to standard protocols (Freshney, 2000) in Dulbecco's Modified Eagle Medium with high glucose supplemented with 1 mM glutamine, 10% (vol/vol) heat-inactivated bovine calf serum, Penicillin/Streptomycin, 50 μg/ml hygromycin and 15 μg/ml blasticidin (all cell culture reagents and antibiotics from Invitrogen, Basel, Switzerland).
About 24 hrs before an experiment, 5×10^4 cells/well were seeded in poly-D-lysine coated, black/clear-bottomed 96-well plates. The cells were loaded with 2.5 μM Fluo-4AM in loading buffer (1×HBSS, 20 mM HEPES) for 1 hr at 37° C. and washed five times with loading buffer. The cells were transferred into a Functional Drug Screening System 7000 (Hamamatsu, Paris, France), and 11 half logarithmic serial dilutions of test compound at 37° C. were added and the cells were incubated for 10-30 min. with on-line recording of fluorescence. Following this pre-incubation step, the agonist (2S)-2-amino-4-phosphonobutanoic acid (L-AP4) was added to the cells at a concentration corresponding to EC20 with on-line recording of fluorescence; in order to account for day-to-day variations in the responsiveness of cells, the EC20 of L-AP4 was determined immediately ahead of each experiment by recording of a full dose-response curve of L-AP4.
Responses were measured as peak increase in fluorescence minus basal (i.e. fluorescence without addition of L-AP4), normalized to the maximal stimulatory effect obtained with saturating concentrations of L-AP4. Graphs were plotted with the % maximal stimulatory using XLfit, a curve fitting program that iteratively plots the data using Levenburg Marquardt algorithm. The single site competition analysis equation used was y=A+((B−A)/(1+((x/C)D))), where y is the % maximal stimulatory effect, A is the minimum y, B is the maximum y, C is the EC50, x is the log 10 of the concentration of the competing compound and D is the slope of the curve (the Hill Coefficient). From these curves the EC50 (drug concentration at which 50% of the maximal receptor activation was achieved), the Hill coefficient as well as the maximal response in % of the maximal stimulatory effect obtained with saturating concentrations of L-AP4 were calculated (see FIG. 1).
A depression of the signal observed after addition of the EC20 concentration of L-AP4was indicative of an inhibitory activity of the test compound.

T1 sequence (Q14833 33-912): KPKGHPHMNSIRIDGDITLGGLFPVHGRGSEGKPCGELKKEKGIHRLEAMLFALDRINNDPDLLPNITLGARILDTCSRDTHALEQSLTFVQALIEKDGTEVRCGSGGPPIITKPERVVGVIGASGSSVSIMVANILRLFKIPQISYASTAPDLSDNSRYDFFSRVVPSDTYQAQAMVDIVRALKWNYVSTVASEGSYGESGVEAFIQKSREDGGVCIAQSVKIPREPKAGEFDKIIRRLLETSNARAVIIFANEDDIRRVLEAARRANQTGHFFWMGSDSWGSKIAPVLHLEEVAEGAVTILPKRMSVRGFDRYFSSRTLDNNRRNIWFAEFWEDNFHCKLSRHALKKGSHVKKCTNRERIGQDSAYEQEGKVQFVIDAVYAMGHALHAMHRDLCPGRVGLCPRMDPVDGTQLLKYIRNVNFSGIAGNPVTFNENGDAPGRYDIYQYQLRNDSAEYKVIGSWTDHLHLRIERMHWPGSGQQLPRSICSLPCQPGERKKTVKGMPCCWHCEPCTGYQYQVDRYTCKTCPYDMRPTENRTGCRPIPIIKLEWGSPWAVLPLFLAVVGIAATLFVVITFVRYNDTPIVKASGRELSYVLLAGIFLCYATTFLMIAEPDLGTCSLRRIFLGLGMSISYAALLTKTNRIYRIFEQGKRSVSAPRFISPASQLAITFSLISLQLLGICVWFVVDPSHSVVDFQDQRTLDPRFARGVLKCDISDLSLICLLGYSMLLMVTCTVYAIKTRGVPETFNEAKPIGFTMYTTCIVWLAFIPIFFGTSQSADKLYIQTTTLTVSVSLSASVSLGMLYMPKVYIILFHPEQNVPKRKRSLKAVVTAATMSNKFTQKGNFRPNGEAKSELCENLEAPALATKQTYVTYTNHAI

| SMILES | Emax [%] | EC50 [nM] |
| --- | --- | --- |
| CC12CC(=O)N(c3c(F)cc(C#Cc4ccccc4)cc3F)C(=O)N1CCN(c1ccccc1)C2=O (racemic) [Example 38, (9aRS)-7-[2,6-Difluoro-4-(2-phenylethynyl)phenyl]-9a-methyl-2-phenyl-4,9-dihydro-3H-pyrazino[1,2-c]pyrimidine-1,6,8-trione] | 105 | 31 |
| CCC1(CC)CC(=O)N(c2c(F)cc(C#Cc3ccccc3)cc2F)C(=O)N1 [Example 21, 3-[2,6-Difluoro-4-(2-phenylethynyl)phenyl]-6,6-diethyl-hexahydropyrimidine-2,4-dione] | 106 | 145 |
| CCC1(C)CC(=O)N(c2c(F)cc(C#Cc3ccccc3)cc2F)C(=O)N1C (racemic) [Example 18, (6RS)-3-[2,6-Difluoro-4-(2-phenylethynyl)phenyl]-6-ethyl-1,6-dimethyl-hexahydropyrimidine-2,4-dione] | 241 | 49 |
| CN1C(=O)N(c2c(F)cc(C#Cc3ccccc3)cc2F)C(=O)CC12CCOC2 (racemic) [Example 12, (5RS)-8-[2,6-Difluoro-4-(2-phenylethynyl)phenyl]-6-methyl-2-oxa-6,8-diazaspiro[4.5]decane-7,9-dione] | 115 | 260 |
| O=C1CC2COCCN2C(=O)N1c1c(F)cc(C#Cc2ccccc2)cc1F (racemic) [Example 8, (9aRS)-7-[2,6-Difluoro-4-(2-phenylethynyl)phenyl]-3,4,9,9a-tetrahydro-1H-pyrimido[6,1-c][1,4]oxazine-6,8-dione] | 107 | 144 |
| COCC1(C)CC(=O)N(c2c(F)cc(C#Cc3ccccc3)cc2F)C(=O)N1C (racemic) [Example 30, (6RS)-3-[2,6-Difluoro-4-(2-phenylethynyl)phenyl]-6-(methoxymethyl)-1,6-dimethyl-hexahydropyrimidine-2,4-dione] | 103 | 123 |
| CN1C(=O)N(c2c(F)cc(C#Cc3cccnc3)cc2F)C(=O)CC1(C)C1CCCCC1 (racemic) [Example 31, (6RS)-6-Cyclohexyl-3-[2,6-difluoro-4-[2-(3-pyridyl)ethynyl]phenyl]-1,6-dimethyl-hexahydropyrimidine-2,4-dione] | 117 | 245 |
| CN1C(=O)N(c2c(F)cc(C#Cc3ccccc3)cc2F)C(=O)C[C@@]1(C)c1ccc(=O)n(C)n1 [Example 83, (6S)-3-[2,6-Difluoro-4-(2-phenylethynyl)phenyl]-1,6-dimethyl-6-(1-methyl-6-oxo-pyridazin-3-yl)hexahydropyrimidine-2,4-dione] | 116 | 42 |
| CC12CC(=O)N(c3c(F)cc(C#Cc4ccccc4)cc3Cl)C(=O)N1CCNC2=O (racemic) [Example 86, (9aRS)-7-[2-Chloro-6-fluoro-4-(2-phenylethynyl)phenyl]-9a-methyl-2,3,4,9-tetrahydropyrazino[1,2-c]pyrimidine-1,6,8-trione] | 100 | 108 |
| CN1C(=O)N(c2ccc(C#Cc3ccccc3)cc2)C(=O)CC1(C)c1ccccc1 (racemic) [Example 24, (6RS)-1,6-Dimethyl-6-phenyl-3-[4-(2-phenylethynyl)phenyl]hexahydropyrimidine-2,4-dione] | 126 | 254 |
| CN1C(=O)N(c2ccc(C#Cc3ccccc3)cc2Cl)C(=O)CC12CCOCC2 [Example 4, 3-[2-Chloro-4-(2-phenylethynyl)phenyl]-1-methyl-9-oxa-1,3-diazaspiro[5.5]undecane-2,4-dione] | 103 | 388 |
| CN1C(=O)N(c2ncc(C#Cc3ccccc3)cc2F)C(=O)CC1(C)c1ccccc1 (racemic) [Example 45, (6RS)-3-[3-Fluoro-5-(2-phenylethynyl)-2-pyridyl]-1,6-dimethyl-6-phenyl-hexahydropyrimidine-2,4-dione] | 107 | 72 |

Results, then the molecule that gave them:

| Emax [%] | EC50 [nM] | SMILES |
| --- | --- | --- |
| 115 | 18 | CN1C(=O)N(c2c(F)cc(C#Cc3ccccc3)cc2F)C(=O)C[C@@]1(C)c1ccc(=O)[nH]n1 [Example 82, (6S)-3-[2,6-Difluoro-4-(2-phenylethynyl)phenyl]-1,6-dimethyl-6-(6-oxo-1H-pyridazin-3-yl)hexahydropyrimidine-2,4-dione] |
| 123 | 36 | CN1C(=O)N(c2c(F)cc(C#Cc3ccccc3)cc2F)C(=O)C[C@@]1(C)c1ccc(=O)[nH]c1 [Example 65, (6S)-3-[2,6-Difluoro-4-(2-phenylethynyl)phenyl]-1,6-dimethyl-6-(6-oxo-1H-pyridin-3-yl)hexahydropyrimidine-2,4-dione] |
| 99 | 72 | CN1C(=O)N(c2c(F)cc(C#Cc3ccccc3)cc2F)C(=O)CC1(C)c1ccccn1 (racemic) [Example 27, (6RS)-3-[2,6-Difluoro-4-(2-phenylethynyl)phenyl]-1,6-dimethyl-6-(2-pyridyl)hexahydropyrimidine-2,4-dione] |
| 112 | 224 | CN1C(=O)N(c2c(F)cc(C#Cc3cccnc3)cc2F)C(=O)CC1(C)c1cccc(Cl)c1 (racemic) [Example 39, (6RS)-6-(3-Chlorophenyl)-3-[2,6-difluoro-4-[2-(3-pyridyl)ethynyl]phenyl]-1,6-dimethyl-hexahydropyrimidine-2,4-dione] |
| 102 | 117 | CN1C(=O)N(c2c(F)cc(C#Cc3ccccc3)cc2F)C(=O)C[C@@]1(C)c1cnccn1 [Example 57, (6S)-3-[2,6-Difluoro-4-(2-phenylethynyl)phenyl]-1,6-dimethyl-6-pyrazin-2-yl-hexahydropyrimidine-2,4-dione] |
| 115 | 229 | CN1C(=O)N(c2c(F)cc(C#Cc3cccnc3)cc2F)C(=O)CC1(C)c1ccc(Cl)cc1 (racemic) [Example 41, (6RS)-6-(4-Chlorophenyl)-3-[2,6-difluoro-4-[2-(3-pyridyl)ethynyl]phenyl]-1,6-dimethyl-hexahydropyrimidine-2,4-dione] |
| 105 | 112 | CN1C(=O)N(c2c(F)cc(C#Cc3ccccc3)cc2F)C(=O)CC1(C)c1ccncc1 (racemic) [Example 28, (6RS)-3-[2,6-Difluoro-4-(2-phenylethynyl)phenyl]-1,6-dimethyl-6-(4-pyridyl)hexahydropyrimidine-2,4-dione] |
| 110 | 429 | CN1C(=O)N(c2c(F)cc(C#Cc3cccnc3)cc2Cl)C(=O)CC1(C)C [Example 9, 3-[2-Chloro-6-fluoro-4-[2-(3-pyridyl)ethynyl]phenyl]-1,6,6-trimethyl-hexahydropyrimidine-2,4-dione] |
| 116 | 42 | CN1C(=O)N(c2c(F)cc(C#Cc3ccccc3)cc2F)C(=O)C[C@@]1(C)c1cc[nH]c(=O)c1 [Example 74, (6S)-3-[2,6-Difluoro-4-(2-phenylethynyl)phenyl]-1,6-dimethyl-6-(2-oxo-1H-pyridin-4-yl)hexahydropyrimidine-2,4-dione] |
| 144 | 109 | CN1C(=O)N(c2c(F)cc(C#Cc3ccccc3)cc2F)C(=O)CC1(C)c1cccnc1 (racemic) [Example 29, (6RS)-3-[2,6-Difluoro-4-(2-phenylethynyl)phenyl]-1,6-dimethyl-6-(3-pyridyl)hexahydropyrimidine-2,4-dione] |
| 109 | 42 | COc1ccc([C@]2(C)CC(=O)N(c3c(F)cc(C#Cc4ccccc4)cc3F)C(=O)N2C)cn1 [Example 63, (6S)-3-[2,6-Difluoro-4-(2-phenylethynyl)phenyl]-6-(6-methoxy-3-pyridyl)-1,6-dimethyl-hexahydropyrimidine-2,4-dione] |
| 108 | 88 | CCC1(c2ccccc2)CC(=O)N(c2c(F)cc(C#Cc3cccnc3)cc2F)C(=O)N1C (racemic) [Example 48, (6RS)-3-[2,6-Difluoro-4-[2-(3-pyridyl)ethynyl]phenyl]-6-ethyl-1-methyl-6-phenyl-hexahydropyrimidine-2,4-dione] |
| 102 | 56 | Cc1cc([C@]2(C)CC(=O)N(c3c(F)cc(C#Cc4ccccc4)cc3F)C(=O)N2C)ccn1 [Example 62, (6S)-3-[2,6-Difluoro-4-(2-phenylethynyl)phenyl]-1,6-dimethyl-6-(2-methyl-4-pyridyl)hexahydropyrimidine-2,4-dione] |
